Literature values as cited in patent publication US20140057918A1, “Methods of Use for Monomethyl Fumarate and Prodrugs Thereof” (XenoPort, Inc., priority 2012, published 2014).
Counter-ions that a name gives are not always drawn.

Columns and labels:
[1] = tested on: herpes simplex virus; settings: animals infected with the herpes simplex virus

## COC(=O)/C=C/C(=O)OC [Dimethyl fumarate, Dimethyl (E)-butenedioate]
other
  aqueous solubility: poor
[1]
  herpes stromal keratitis: improved
